Patent US12350306B2, “Modifying taste and sensory irritation of smokeless tobacco and non-tobacco products” (Altria Client Services LLC, priority 2013, dated 2025)

Key:
TRPV1 channel = TRPV1 channel (Homo sapiens, UniProt Q8NER1); details: cited from earlier work
[1] = experimental animal models; cited from earlier work
[2] = Perceived bitterness of caffeinated water formulations; assay type: in vivo; details: caffeinated water formulation
Method: Liquid formulations were prepared by combining caffeinated water or commercially available grapefruit juice with Cremophor® alone, citric acid alone or the combination of Cremophor® and citric acid. […] Because grapefruit juice naturally contains citric acid, citric acid was not added to the grapefruit juice formulations.

Sequence of TRPV1 channel (Q8NER1 whole entry): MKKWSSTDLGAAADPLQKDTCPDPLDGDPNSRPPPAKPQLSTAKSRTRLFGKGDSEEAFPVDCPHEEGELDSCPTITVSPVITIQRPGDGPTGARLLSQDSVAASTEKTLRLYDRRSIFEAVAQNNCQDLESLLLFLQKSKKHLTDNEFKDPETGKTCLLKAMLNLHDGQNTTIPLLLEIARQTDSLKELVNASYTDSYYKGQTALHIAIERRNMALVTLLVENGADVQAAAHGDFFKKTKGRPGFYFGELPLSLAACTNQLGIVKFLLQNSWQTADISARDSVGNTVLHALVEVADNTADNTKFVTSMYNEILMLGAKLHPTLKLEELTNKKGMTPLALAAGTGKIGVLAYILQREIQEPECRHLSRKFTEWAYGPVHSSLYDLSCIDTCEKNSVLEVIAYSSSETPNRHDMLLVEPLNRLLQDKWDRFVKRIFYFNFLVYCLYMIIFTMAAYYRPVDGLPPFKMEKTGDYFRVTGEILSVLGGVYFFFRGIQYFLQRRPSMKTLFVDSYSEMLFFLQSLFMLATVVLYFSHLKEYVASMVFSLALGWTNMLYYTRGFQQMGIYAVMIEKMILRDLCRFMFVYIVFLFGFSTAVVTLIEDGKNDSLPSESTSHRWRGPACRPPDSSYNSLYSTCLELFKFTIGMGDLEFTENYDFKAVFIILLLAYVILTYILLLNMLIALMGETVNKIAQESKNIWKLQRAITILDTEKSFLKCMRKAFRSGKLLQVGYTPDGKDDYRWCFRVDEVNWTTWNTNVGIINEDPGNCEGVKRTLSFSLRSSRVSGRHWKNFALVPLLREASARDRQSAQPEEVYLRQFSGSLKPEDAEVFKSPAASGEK

CCCCCC[C@@H](O)C/C=C/CCCCCCCC(=O)O (stereo in doubt) [Ricinoleic acid, 12-hydroxy-9-cis-octadecenoic acid]
TRPV1 channel desensitization (TRPV1 channel): can desensitize the TRPV1 channel
anti-inflammatory effects [1]: anti-inflammatory effects

O=C(O)CC(O)(CC(=O)O)C(=O)O [citric acid]
perceived bitterness [2]: little noticeable effect
